Measured values published in the CheMixHub ionic liquid set.

Assay: xn = mol fraction of the nth substance listed
Conditions: for electrical conductivity: 101 kPa, frequency 2 MHz; for viscosity: 100 kPa

O=S(=O)([O-])C(F)(F)F.[Li+] + O=S(=O)([N-]S(=O)(=O)C(F)(F)F)C(F)(F)F.[Li+] + O
Conditions	electrical conductivity [S/m]	viscosity [mPa·s]
273 K, x2 = 0.001799, x1 = 0.0005943	0.413	–
273 K, x2 = 0.005377, x1 = 0.001799	0.96	–
273 K, x2 = 0.00893, x1 = 0.003054	1.38	–
273 K, x2 = 0.01246, x1 = 0.004127	1.716	–
273 K, x2 = 0.01596, x1 = 0.005377	1.99	–
273 K, x2 = 0.01944, x1 = 0.006623	2.219	–
273 K, x2 = 0.05129, x1 = 0.0177	2.96	–
273 K, x2 = 0.08265, x1 = 0.02921	2.59	–
273 K, x2 = 0.112, x1 = 0.04029	1.98	–
273 K, x2 = 0.1395, x1 = 0.05129	1.422	–
273 K, x2 = 0.1654, x1 = 0.06203	0.985	–
273 K, x2 = 0.1898, x1 = 0.07238	0.666	–
273 K, x2 = 0.2128, x1 = 0.08265	0.443	–
273 K, x2 = 0.2345, x1 = 0.0927	0.291	–
273 K, x2 = 0.2551, x1 = 0.1024	0.189	–
273 K, x2 = 0.2745, x1 = 0.112	0.121	–
278 K, x2 = 0.001799, x1 = 0.0005943	0.475	–
278 K, x2 = 0.005377, x1 = 0.001799	1.114	–
278 K, x2 = 0.00893, x1 = 0.003054	1.606	–
278 K, x2 = 0.01246, x1 = 0.004127	2.004	–
278 K, x2 = 0.01596, x1 = 0.005377	2.33	–
278 K, x2 = 0.01944, x1 = 0.006623	2.6	–
278 K, x2 = 0.05129, x1 = 0.0177	3.47	–
278 K, x2 = 0.08265, x1 = 0.02921	3.039	–
278 K, x2 = 0.112, x1 = 0.04029	2.329	–
278 K, x2 = 0.1395, x1 = 0.05129	1.68	–
278 K, x2 = 0.1654, x1 = 0.06203	1.17	–
278 K, x2 = 0.1898, x1 = 0.07238	0.802	–
278 K, x2 = 0.2128, x1 = 0.08265	0.54	–
278 K, x2 = 0.2345, x1 = 0.0927	0.36	–
278 K, x2 = 0.2551, x1 = 0.1024	0.237	–
278 K, x2 = 0.2745, x1 = 0.112	0.155	–
283 K, x2 = 0.001799, x1 = 0.0005943	0.542	–
283 K, x2 = 0.005377, x1 = 0.001799	1.28	–
283 K, x2 = 0.00893, x1 = 0.003054	1.86	–
283 K, x2 = 0.01246, x1 = 0.004127	2.323	–
283 K, x2 = 0.01596, x1 = 0.005377	2.704	–
283 K, x2 = 0.01944, x1 = 0.006623	3.017	–
283 K, x2 = 0.05129, x1 = 0.0177	4.041	–
283 K, x2 = 0.08265, x1 = 0.02921	3.538	–
283 K, x2 = 0.112, x1 = 0.04029	2.718	–
283 K, x2 = 0.1395, x1 = 0.05129	1.97	–
283 K, x2 = 0.1654, x1 = 0.06203	1.39	–
283 K, x2 = 0.1898, x1 = 0.07238	0.957	–
283 K, x2 = 0.2128, x1 = 0.08265	0.652	–
283 K, x2 = 0.2345, x1 = 0.0927	0.441	–
283 K, x2 = 0.2551, x1 = 0.1024	0.295	–
283 K, x2 = 0.2745, x1 = 0.112	0.196	–
288.1 K, x2 = 0.001799, x1 = 0.0005943	0.615	–
288.1 K, x2 = 0.005377, x1 = 0.001799	1.47	–
288.1 K, x2 = 0.00893, x1 = 0.003054	2.134	–
288.1 K, x2 = 0.01246, x1 = 0.004127	2.67	–
288.1 K, x2 = 0.01596, x1 = 0.005377	3.116	–
288.1 K, x2 = 0.01944, x1 = 0.006623	3.48	–
288.1 K, x2 = 0.05129, x1 = 0.0177	4.67	–
288.1 K, x2 = 0.08265, x1 = 0.02921	4.09	–
288.1 K, x2 = 0.112, x1 = 0.04029	3.147	–
288.1 K, x2 = 0.1395, x1 = 0.05129	2.29	–
288.1 K, x2 = 0.1654, x1 = 0.06203	1.625	–
288.1 K, x2 = 0.1898, x1 = 0.07238	1.133	–
288.1 K, x2 = 0.2128, x1 = 0.08265	0.782	–
288.1 K, x2 = 0.2345, x1 = 0.0927	0.535	–
288.1 K, x2 = 0.2551, x1 = 0.1024	0.364	–
288.1 K, x2 = 0.2745, x1 = 0.112	0.246	–
293 K, x2 = 0.001799, x1 = 0.0005943	0.693	–
293 K, x2 = 0.005377, x1 = 0.001799	1.67	–
293 K, x2 = 0.00893, x1 = 0.003054	2.434	–
293 K, x2 = 0.01246, x1 = 0.004127	3.05	–
293 K, x2 = 0.01596, x1 = 0.005377	3.56	–
293 K, x2 = 0.01944, x1 = 0.006623	3.98	–
293 K, x2 = 0.05129, x1 = 0.0177	5.346	–
293 K, x2 = 0.08265, x1 = 0.02921	4.68	–
293 K, x2 = 0.112, x1 = 0.04029	3.616	–
293 K, x2 = 0.1395, x1 = 0.05129	2.648	–
293 K, x2 = 0.1654, x1 = 0.06203	1.89	–
293 K, x2 = 0.1898, x1 = 0.07238	1.331	–
293 K, x2 = 0.2128, x1 = 0.08265	0.929	–
293 K, x2 = 0.2345, x1 = 0.0927	0.644	–
293 K, x2 = 0.2551, x1 = 0.1024	0.445	–
293 K, x2 = 0.2745, x1 = 0.112	0.305	–
298.1 K, x2 = 0.001799, x1 = 0.0005943	0.778	–
298.1 K, x2 = 0.005377, x1 = 0.001799	1.89	–
298.1 K, x2 = 0.00893, x1 = 0.003054	2.76	–
298.1 K, x2 = 0.01246, x1 = 0.004127	3.46	–
298.1 K, x2 = 0.01596, x1 = 0.005377	4.045	–
298.1 K, x2 = 0.01944, x1 = 0.006623	4.522	–
298.1 K, x2 = 0.05129, x1 = 0.0177	6.08	–
298.1 K, x2 = 0.08265, x1 = 0.02921	5.326	–
298.1 K, x2 = 0.112, x1 = 0.04029	4.123	–
298.1 K, x2 = 0.1395, x1 = 0.05129	3.035	–
298.1 K, x2 = 0.1654, x1 = 0.06203	2.18	–
298.1 K, x2 = 0.1898, x1 = 0.07238	1.55	–
298.1 K, x2 = 0.2128, x1 = 0.08265	1.09	–
298.1 K, x2 = 0.2345, x1 = 0.0927	0.768	–
298.1 K, x2 = 0.2551, x1 = 0.1024	0.537	–
298.1 K, x2 = 0.2745, x1 = 0.112	0.374	–
298.15 K, x1 = 0.04029, x2 = 0.1114	–	7.5
298.15 K, x1 = 0.07222, x2 = 0.1893	–	29.1
298.15 K, x1 = 0.09226, x2 = 0.2336	–	69
298.15 K, x1 = 0.1024, x2 = 0.2553	–	98
298.15 K, x1 = 0.1122, x2 = 0	–	3.7
298.15 K, x1 = 0.1122, x2 = 0.2745	–	152
298.15 K, x1 = 0.1783, x2 = 0	–	9.2
298.15 K, x1 = 0.2388, x2 = 0	–	21.9
298.15 K, x1 = 0.2541, x2 = 0	–	31.8
298.15 K, x1 = 0.2743, x2 = 0	–	47.2
303 K, x2 = 0.001799, x1 = 0.0005943	0.867	–
303 K, x2 = 0.005377, x1 = 0.001799	2.117	–
303 K, x2 = 0.00893, x1 = 0.003054	3.1	–
303 K, x2 = 0.01246, x1 = 0.004127	3.9	–
303 K, x2 = 0.01596, x1 = 0.005377	4.56	–
303 K, x2 = 0.01944, x1 = 0.006623	5.1	–
303 K, x2 = 0.05129, x1 = 0.0177	6.85	–
303 K, x2 = 0.08265, x1 = 0.02921	6.011	–
303 K, x2 = 0.112, x1 = 0.04029	4.67	–
303 K, x2 = 0.1395, x1 = 0.05129	3.45	–
303 K, x2 = 0.1654, x1 = 0.06203	2.5	–
303 K, x2 = 0.1898, x1 = 0.07238	1.79	–
303 K, x2 = 0.2128, x1 = 0.08265	1.28	–
303 K, x2 = 0.2345, x1 = 0.0927	0.908	–
303 K, x2 = 0.2551, x1 = 0.1024	0.643	–
303 K, x2 = 0.2745, x1 = 0.112	0.454	–
308.1 K, x2 = 0.001799, x1 = 0.0005943	0.961	–
308.1 K, x2 = 0.005377, x1 = 0.001799	2.36	–
308.1 K, x2 = 0.00893, x1 = 0.003054	3.46	–
308.1 K, x2 = 0.01246, x1 = 0.004127	4.36	–
308.1 K, x2 = 0.01596, x1 = 0.005377	5.1	–
308.1 K, x2 = 0.01944, x1 = 0.006623	5.702	–
308.1 K, x2 = 0.05129, x1 = 0.0177	7.67	–
308.1 K, x2 = 0.08265, x1 = 0.02921	6.732	–
308.1 K, x2 = 0.112, x1 = 0.04029	5.239	–
308.1 K, x2 = 0.1395, x1 = 0.05129	3.89	–
308.1 K, x2 = 0.1654, x1 = 0.06203	2.839	–
308.1 K, x2 = 0.1898, x1 = 0.07238	2.05	–
308.1 K, x2 = 0.2128, x1 = 0.08265	1.48	–
308.1 K, x2 = 0.2345, x1 = 0.0927	1.06	–
308.1 K, x2 = 0.2551, x1 = 0.1024	0.763	–
308.1 K, x2 = 0.2745, x1 = 0.112	0.545	–
308.15 K, x1 = 0.04029, x2 = 0.1114	–	5.6
308.15 K, x1 = 0.07222, x2 = 0.1893	–	20.6
308.15 K, x1 = 0.09226, x2 = 0.2336	–	45.7
308.15 K, x1 = 0.1024, x2 = 0.2553	–	63
308.15 K, x1 = 0.1122, x2 = 0	–	2.9
308.15 K, x1 = 0.1122, x2 = 0.2745	–	94.6
308.15 K, x1 = 0.1783, x2 = 0	–	6.9
308.15 K, x1 = 0.2388, x2 = 0	–	16
308.15 K, x1 = 0.2541, x2 = 0	–	22.6
308.15 K, x1 = 0.2743, x2 = 0	–	32.9
313 K, x2 = 0.001799, x1 = 0.0005943	1.06	–
313 K, x2 = 0.005377, x1 = 0.001799	2.61	–
313 K, x2 = 0.00893, x1 = 0.003054	3.835	–
313 K, x2 = 0.01246, x1 = 0.004127	4.834	–
313 K, x2 = 0.01596, x1 = 0.005377	5.66	–
313 K, x2 = 0.01944, x1 = 0.006623	6.331	–
313 K, x2 = 0.05129, x1 = 0.0177	8.518	–
313 K, x2 = 0.08265, x1 = 0.02921	7.48	–
313 K, x2 = 0.112, x1 = 0.04029	5.838	–
313 K, x2 = 0.1395, x1 = 0.05129	4.36	–
313 K, x2 = 0.1654, x1 = 0.06203	3.201	–
313 K, x2 = 0.1898, x1 = 0.07238	2.334	–
313 K, x2 = 0.2128, x1 = 0.08265	1.7	–
313 K, x2 = 0.2345, x1 = 0.0927	1.234	–
313 K, x2 = 0.2551, x1 = 0.1024	0.895	–
313 K, x2 = 0.2745, x1 = 0.112	0.647	–
